According to patent US20140309295A1, “ANTIEPILEPTIC, HYPOCHOLESTEROLEMIC AND NEUROPROTECTIVE COMPOUND” (NEURON BIOPHARMA, S.A., priority 2009, published 2014):

Experiments:
[1] = tested on: seladin-1/DHCR24 gene; experiment: seladin-1/DHCR24 gene expression in SK-N-MC cells (real-time quantitative RT-PCR); assay type: cell-based, human; conditions: 1, 4, 10 or 40 μM, 24 hours
Procedure: The assay was performed on human neuroblastoma SK-N-MC cells in culture from the American Type Culture Collection (ATCC), in all cases strict rules of sterility were followed and the manipulation was performed in class II biological safety cabinets following European standard EN 12469. The cells were maintained in the following culture medium: Minimum Essential Medium Eagle (MEM) supplemented with 1 mM sodium pyruvate, 2 mM L-glutamine, 0.1 mM non-essential amino acids, 0.05 mg/ml gentamicin and 10% fetal bovine serum.
The expression of the seladin-1/DHCR24 gene (NCBI Reference Sequence: NM_014762.3) was analyzed by means of real-time quantitative RT-PCR in comparison with memantine (a drug normally used to treat Alzheimer's disease). […] The total RNA was extracted by means of the High Pure RNA Isolation kit (Roche) and the amount and quality of the RNA were analyzed by means of spectrophotometry (Infinite 200 with NanoQuant, Tecan) and viewing of the 18S and 28S bands by means of electrophoresis. The RT-PCR was performed by means of two steps, first, the mRNA was changed to cDNA using the RNA to cDNA kit (Applied Biosystem) and the gene expression was subsequently analyzed by means of TaqMan probes using the validated probes Hs00207388_m1 for seladin-1/DHCR24 and Hs99999901_s1 for 18S (used to normalize the results) in the 7500 Fast Real-Time PCR System equipment (Applied Biosystem). […]

[2] = tested on: FVB/NHan mice inoculated with kainate (KA); experiment: Neuropathological signs in hippocampus after kainate (MAP2, HNE, T.U.N.E.L., GFAP); assay type: in vivo; conditions: for neuritic dystrophy (MAP2 labeling) in hippocampus: 50 mg/kg i.p., 7 days
Procedure: All the animals included for the experimental process were 12-week old males of the FVB/NHan strain. The experiments were conducted strictly following the Guidance on the Operation of Animals (Scientific Procedures, Act. 1986). The animals had their respective quarantine period and were treated with maximum precaution to minimize possible contaminations during inoculations and handling.
Twenty-five animals were used in this assay and the treatments were all conducted by intraperitoneal (i.p.) route with a volume of 100 μl, according to the following regimens: • i) PBS+PBS+PBS regimen: 4 animals were initially treated with PBS with a daily dose for 2 days, on the second day the animals were inoculated with a new dose of PBS and for the next 7 days with a daily dose of PBS. • ii) NST0037+KA+NST0037 regimen: 7 animals were initially treated with a daily dose for 2 days with NST0037 at 50 mg/kg, on the second day the animals were inoculated with a dose of kainate at 25 mg/Kg and for the next 7 days with a daily dose of NST0037 at 50 mg/kg. • iii) PBS+KA+PBS regimen: 7 animals were initially treated with PBS with a daily dose for 2 days, on the second day the animals were inoculated with a dose of kainate at 25 mg/Kg and for the next 7 days with a daily dose of PBS. • iv) PBS+KA+NST0037 regimen: 7 animals were initially treated with PBS with a daily dose for 2 days, on the second day the animals were inoculated with a dose of kainate at 25 mg/Kg and for the next 7 days with a daily dose of NST0037 at 50 mg/kg.
Once the treatment time of 7 days ended, the animals were sacrificed and the brains were dissected. The brain samples were processed and included in paraffin. For the analysis of neuritic dystrophy in the hippocampus, bright field immunochemistry against microtubule associated protein type 2 (MAP2) was performed in 5 μm thick coronal sections.
Once the treatment time of 7 days ended, the animals were sacrificed and the brains were dissected. The brain samples were processed and included in paraffin. For the analysis of oxidative damage due to lipid peroxidation in the hippocampus, bright field immunochemistry against 4-hydroxynonenal (HNE) was performed in 5 μm thick coronal sections.
Once the treatment time of 7 days ended, the animals were sacrificed and the brains were dissected. The brain samples were processed and included in paraffin. For the analysis of the presence of neurons in apoptosis in the hippocampus, the T.U.N.E.L. (TdT-mediated dUTP nick end labeling) fluorescence technique was performed in 5 μm thick coronal sections.
Once the treatment time of 7 days ended, the animals were sacrificed and the brains were dissected. The brain samples were processed and included in paraffin. The analysis of reactive astrogliosis was performed by means of bright field immunochemistry against Glial fibrillary acidic protein (GFAP) in 5 μm thick coronal sections, which protein is present in astrocytes.

[3] = tested on: Zucker rats; experiment: Hypolipidemic effect in genetically obese Zucker rats, oral 7 days; assay type: in vivo; conditions: 30 mg/kg oral
Procedure: All the animals included for the experimental process were 11 week-old male Zucker rats. The experiments were conducted strictly following the Guidance on the Operation of Animals (Scientific Procedures, Act. 1986). The animals had their respective quarantine period and were treated with maximum precaution to minimize possible contaminations for inoculations and handling.
After a conditioning to the diet, 30 mg/kg of NST0021 or NST0037 were orally administered to the […] at the same time (15.00 to 18.00 h) for 7 consecutive days, using in both cases 0.5% carboxy methylcellulose in water as a vehicle. The control group received this same vehicle. Before starting the treatments and at 7 days therefrom, blood was extracted by lingual puncture under anesthesia after fasting for 16 hours. The plasma was obtained from said blood, in which the total cholesterol, HDL-c, LDL-c, VLDL-c, and triglyceride (TG) levels were evaluated by enzymatic and spectrophotometric techniques. In order to check if the effect at the lipid level involved an alteration of the oxidative stress, the redox state in the plasmas obtained was furthermore evaluated by means of the TEAC (Trolox Antioxidant Capacity Assay) technique. This technique determines the antioxidant capacity in vitro, giving an idea of the redox state of the sample analyzed by means of the absorbance capacity by electron transfer. The different components of the reaction, myoglobin, ABTS (2,2-azino-bis-(3-ethylbenzthiazoline-sulfonic acid) and hydrogen peroxide were added to the plasmas diluted 1/10 in PBS (10 μL) in a 96-well plate. After 3 minutes of incubation, the absorbance was measured at 405 nm (with a reference of 600 nm).

For `CCC(CC)C(=O)O[C@H]1C[C@@H](C)C=C2C=C[C@H](C)[C@H](CC[C@@H]3C[C@@H](O)CC(=O)O3)[C@H]21` [NST0037, (1S,2S,6R,8S,8aR)-1,2,6,7,8,8a-hexahydro-3,7-dimethyl-8-[2-[(2R,4R)-tetrahydro-4-hydroxy-6-oxo-2H-pyran-2-yl]ethyl]-1-naphthalenyl-2-ethyl-butyrate], the seladin-1/DHCR24 gene expression [1] was “increase of seladin-1/DHCR24 gene expression”, the “apoptosis (T.U.N.E.L.) in hippocampus” value ([2]; NST0037+KA+NST0037 regimen) was “did not show neurons positive for T.U.N.E.L” and the “oxidative damage (HNE labeling) in hippocampus” value ([2]; NST0037+KA+NST0037 regimen) was “without HNE-labeled neurons”. For the same compound, the “reactive astrogliosis (GFAP) in hippocampus” value ([2]; NST0037+KA+NST0037 regimen) was “astrocyte pattern very similar to that of the controls”, the “neuritic dystrophy (MAP2 labeling) in hippocampus” value ([2]; NST0037+KA+NST0037 regimen) was “without evidence of neuritic dystrophy” and the “apoptosis (T.U.N.E.L.) in hippocampus” value ([2]; PBS+KA+NST0037 regimen) was “reduces the number of neurons in apoptosis to a few isolated cells”. For the same compound, the “oxidative damage (HNE labeling) in hippocampus” value ([2]; PBS+KA+NST0037 regimen) was “reduces the number of HNE-labeled neurons”, the “reactive astrogliosis (GFAP) in hippocampus” value ([2]; PBS+KA+NST0037 regimen) was “reduces the number of astrocytes and the intensity of the GFAP labeling” and the “neuritic dystrophy (MAP2 labeling) in hippocampus” value ([2]; PBS+KA+NST0037 regimen) was “clearly reduces the loss of MAP2 labeling”. For the same compound, the HDL [3] was “increase of HDL”, the “oxidative stress (redox state in plasma, TEAC)” value [3] was “drastic reduction” and the plasma triglyceride levels [3] was “reduced the plasma triglyceride levels”. The “plasma LDL levels” value ([3]; male Zucker rats) was “equally reducing the plasma LDL levels”.
